Laboratory results reported in a melting point compilation (Tetko et al.; mined from patent text by program, amines drawn as free bases though some values may be those of a salt).

First: CC(=O)Oc1ccccc1-c1[nH]c2ccc(Cl)cc2c1-c1ccc(S(C)(=O)=O)cc1
Second: Cc1noc(-c2ccc(F)cc2)c1-c1ccc(S(N)(=O)=O)cc1
The melting point of the first is higher: 238 to 240 °C for the first, 174 to 175 °C for the second.

First: CC(=O)SCCc1cccc(N)n1
Second: CCOC(=O)c1ccc(O)nc1
The melting point of the first is lower: 55 to 59 °C for the first, 143 to 144 °C for the second.

First: CS(=O)(=O)c1ccc(C(O)C(CF)N=[N+]=[N-])cc1 (stereo not drawn)
Second: CCOC(=O)C(C)c1ccc(-c2ccc(F)cc2F)c(F)c1 (stereo not drawn)
The melting point of the first is higher: 121 to 123 °C for the first, 36 to 38 °C for the second.

Compared with CN(CCCOC(=O)Cc1ccccc1Nc1c(Cl)cccc1Cl)CC1(SN=O)CCCCC1, COC(=O)CCc1cccc(OCCC2Oc3ccccc3N(Cc3cccc(Cl)c3)C2=O)c1 (stereo not drawn) is higher in melting point: 58 to 60 °C for the first, 92 to 94 °C for the second.

Compared with O=C(CCc1ccccc1)c1ccc(Cl)cc1, CCOC(=O)C(C)c1ccc(C(=O)c2ccc(Cl)cc2)n1C (stereo not drawn) is lower in melting point: 78 to 79 °C for the first, 67 to 68 °C for the second.

First: CC(=O)OC1CSC(Oc2cccc(-c3cccnc3)n2)C(OC(C)=O)C1OC(C)=O (stereo not drawn)
Second: O=C(O)COc1ccc(C(=C2SCCCS2)c2ccccc2)cc1
The melting point of the first is lower: 141 °C for the first, 176 to 177 °C for the second.

Compared with O=c1ncc(C(F)(F)F)cn1COc1ccc(Cl)cc1, Cc1nnc2ccc(-c3ccc(Cl)c(C(F)(F)F)c3)nn12 is higher in melting point: 98 °C for the first, 267 to 269 °C for the second.

First: COc1ccc2cc(CCCOCCCCCCNCC(O)c3ccc(O)c(NS(C)(=O)=O)c3)ccc2c1 (stereo not drawn)
Second: CCCCCCCCCCCCCCCCCCOc1ccc(C(=O)Nc2ccc(O)cc2)cc1
The melting point of the first is lower: 87 to 89 °C for the first, 193 °C for the second.

Compared with COc1cc2ncnc(N3CCN(C(=O)Nc4ccncc4)CC3)c2cc1OC, C[C@H]1C(=O)OCCN1CC=CC(=O)Nc1cc2c(Nc3ccc(F)c(Cl)c3)ncnc2cc1OCC1CC1 is higher in melting point: 141 to 143 °C for the first, 182 °C for the second.

First: Cc1ccc(-c2nc(Cc3cccc(CBr)c3)c(C)o2)cc1
Second: Cc1sc(-c2ccccc2)nc1COc1ccc(CCCC2OCCO2)cc1
The melting point of the first is higher: 101 to 102 °C for the first, 80 to 81 °C for the second.

Compared with CC(C)(C)P1(=O)c2ccccc2CN1c1ccccc1 (stereo not drawn), N#Cc1ccc(C2CCCC(=O)N2c2ccccc2)cc1 (stereo not drawn) is lower in melting point: 171 to 172 °C for the first, 120 °C for the second.

First: Cc1cc2c(cc1-c1cc(C=CC(=O)O)ccc1F)C(C)(C)CCC2(C)C
Second: Cc1cc(C2CCN(C(=O)OC(C)(C)C)CC2)cnc1COc1ccc(S(C)(=O)=O)cc1
The melting point of the first is higher: 181 to 183 °C for the first, 130 to 132 °C for the second.

First: CSc1cc(=O)c2occc2s1
Second: COc1ccc(F)c(O)c1
The melting point of the first is higher: 149 to 150 °C for the first, 25 to 26 °C for the second.

First: O=S(CCO)Cc1cccnc1 (stereo not drawn)
Second: Cc1cc(CO)ccn1
The melting point of the first is higher: 84 to 86 °C for the first, 58 to 59 °C for the second.

First: CC(C)c1c(C(=O)Nc2ccc(O)cc2)c(-c2ccccc2)c(-c2ccc(F)cc2)n1CC[C@@H]1C[C@@H](O)CC(=O)O1
Second: Cc1ccccc1C(=NC(=Nc1ccccc1)N1CCC(=O)CC1)Nc1ccc(F)cc1
The melting point of the first is lower: 130 to 133 °C for the first, 234 to 235 °C for the second.

First: CC(C)(C)OC(=O)NNC(=O)c1cc(OCc2ccccc2)c(OCc2ccccc2)c(CSc2ccncc2)n1
Second: CC1=c2c(cc3c(c2C)C=C(C(=O)OCc2ccccc2)N=3)N=C1C(=O)OCc1ccccc1
The melting point of the first is lower: 181 to 182 °C for the first, 197 to 200 °C for the second.

Compared with CCCc1ccc(O)c2c(=O)cc(-c3nnn[nH]3)oc12, CCOC(=O)c1n[nH]c2c(=S)[nH]c3cc(Cl)ccc3c(=O)c12 is higher in melting point: 242 to 245 °C for the first, 248 to 253 °C for the second.

Going from CCOC(=O)C(=CC=C(SC)C(=O)c1ccc(O)c(O)c1)N(C)C to CCOC(=O)CC(=O)Nc1c(C(=O)OC)cccc1C(F)(F)F, the melting point falls from 144 °C to 87 °C.

First: C[C@@H](N(CC(=O)O)C(=O)c1ccc(C(F)(F)F)cc1F)[C@](O)(Cn1cncn1)c1ccc(F)cc1F (relative stereo)
Second: CN(C)S(=O)(=O)c1cccc(NC(=O)c2cnn3c(C(F)(F)F)cc(-c4ccc(C(F)(F)F)cc4)nc23)c1
The melting point of the first is lower: 191 to 192 °C for the first, 210 °C for the second.

Compared with COC(=O)c1cc(I)ccc1N=C=S, COC(=O)c1ccccc1NC(=O)CNc1ccccc1Br is higher in melting point: 60 to 62 °C for the first, 89 to 91 °C for the second.

First: CCCCCc1c(C(C)O)nc(C(C)C)c(CO)c1-c1ccc(F)cc1 (stereo not drawn)
Second: CCCCCOc1ccc(C=O)cc1O
The melting point of the first is higher: 125 to 127 °C for the first, 55 to 56 °C for the second.

First: CCOC(=O)c1ccc(Cn2cnc3ccncc32)cc1
Second: CCOC(=O)COc1cc(OCc2ccccc2)ccc1C#N
The melting point of the first is higher: 110 to 112 °C for the first, 84 °C for the second.

First: CCCCSN(C)C(=O)Nc1ccc(Cl)c(Cl)c1
Second: CNC(=O)c1cccc(NC(=O)COc2cccc(Cl)c2Cl)c1
The melting point of the first is lower: 47 °C for the first, 192 to 193 °C for the second.

CNC(=O)N(N)c1nnc(C(C)(C)C)s1 and CCNC(=O)c1c([Si](C)(C)C)ccc(C=O)c1Cl cannot be ordered by melting point: 141 to 142 °C for the first, 140 to 142 °C for the second.

First: O=[N+]([O-])c1ccc(-n2nnnc2Cl)cc1
Second: CCc1noc(-c2ncn(-c3cccc(Oc4ccc([N+](=O)[O-])cc4)c3)c2COC)n1
The melting point of the first is lower: 96.5 °C for the first, 126 to 127 °C for the second.

Compared with Fc1nc2ccccc2cc1Br, Fc1ccc(Nc2nc3ccccc3o2)c(F)c1 is higher in melting point: 75 to 76 °C for the first, 115 to 117 °C for the second.

First: O=S1(=O)N=CN(C2CC2)c2cc(Br)cc(F)c21
Second: O=C(OCC1CC1)c1ncn2c1[C@@H]1CCCN1C(=O)c1cc(F)ccc1-2
The melting point of the first is higher: 285 to 287 °C for the first, 140 to 142 °C for the second.

First: CS(=O)(=O)Oc1ccc([N+](=O)[O-])c(OCCBr)c1
Second: Cc1ccccc1Oc1cccc(CC(=O)O)c1[N+](=O)[O-]
The melting point of the first is lower: 96 to 98 °C for the first, 158 to 160 °C for the second.

Compared with CC(=O)Nc1nc2c(Oc3cc(-c4ccc(C(F)(F)F)cc4)ncn3)cccc2o1, CCS(=O)(=O)Cc1ccc(Oc2ccc(NC(C)=O)cc2)cc1 is lower in melting point: 205 °C for the first, 186 °C for the second.

Compared with COC(=O)Cc1cscc1C(=O)O, C=C(C)C(=O)NCC(=O)NCC(=O)O is higher in melting point: 121 to 122 °C for the first, 200 to 201 °C for the second.

First: O=C(c1ccc2c(c1)sc(=O)n2CCOc1ccc(CC(OCC(F)(F)F)C(=O)O)cc1)C1CC1 (stereo not drawn)
Second: Fc1ccc(C(=C(c2ccccc2)c2ccc(OCCN3CCOCC3)cc2)C(F)(F)F)cc1
The melting point of the first is higher: 124 to 128 °C for the first, 67 to 69 °C for the second.

First: CC(C)Oc1ccnc2[nH]ccc12
Second: CC(=O)NCCSc1ccnc(CSc2nc3ccccc3[nH]2)c1C
The melting point of the first is lower: 182 to 184 °C for the first, 211 to 213 °C for the second.

First: COc1cc(C)c(C(=O)c2c(OC)cnc(Cl)c2C(F)(F)F)c(OC)c1OC
Second: COCOc1cc(-n2c(OC)nc(C(F)(F)F)cc2=O)c(F)cc1Cl
The melting point of the first is higher: 117 to 119 °C for the first, 97 to 98 °C for the second.

First: CC1(C(=O)c2c[nH]c3ncc(-c4cccc(N5CCOCC5)c4)nc23)CCCCC1
Second: O=C1CCCc2ccc(OCCCCN3CCN(c4cccc5c4OCCCO5)CC3)nc2N1
The melting point of the first is higher: 208 to 209 °C for the first, 200 to 201 °C for the second.

Compared with CN1CCN(C2=Nc3cc(Cl)cc4c3N(CC4)c3ccccc32)CC1, CN(C)CCNC(=O)N1CCN(c2ccc(Cl)cc2)CC1 is lower in melting point: 199 to 200 °C for the first, 125 to 128 °C for the second.

First: CCCCOC(=O)Oc1cc(-n2c(OCC)nc(C(F)(F)F)cc2=O)c(F)cc1Cl
Second: CCOC(=O)c1nc(-c2ccc(Cl)cc2Cl)n(-c2ccc(Cl)cc2)c1CF
The melting point of the first is lower: 100 to 102 °C for the first, 124 to 125 °C for the second.

First: Cc1ccc(C(=O)Nc2cn(C3CCCCO3)nc2C(=O)NCCC(F)(F)F)cn1 (stereo not drawn)
Second: COC(=O)c1cc2cnc(N3CCC[C@H]3CO)nc2n(Cc2ccc(OC)c(Cl)c2)c1=O
The melting point of the first is lower: 147 to 148 °C for the first, 175 to 176 °C for the second.

Compared with CCOC(=O)C1=C(C)NC(C)=C(C(=O)OCC)C1c1ccccc1/C=C/C(=O)OCC(C)C, CCCn1c(=O)c2[nH]c(/C=C/c3cccc(OC)c3OC)nc2n(CCC)c1=O is higher in melting point: 172 to 174 °C for the first, 236 °C for the second.

First: C1=C(c2c[nH]c3ccccc23)CCN(CC2COc3ccc4nocc4c3O2)C1 (stereo not drawn)
Second: Clc1c2nc3ccccc3c-2[nH]c2ccccc12
The melting point of the first is lower: 110 °C for the first, 220 to 222 °C for the second.

First: CN(C)Cc1ccc(CSCCNc2ncc(Cc3cccnc3)c(=O)[nH]2)cc1
Second: S=C(NCCc1ccccc1Cl)Nc1nc2ccccc2[nH]1
The melting point of the first is lower: 124 to 126 °C for the first, 166 to 169 °C for the second.

Compared with Cc1cc(C)c(CC(=O)O)c(C#N)c1, Cc1ccc(C(C)(C)CCCCC(=O)O)cc1C is lower in melting point: 155 to 157 °C for the first, 71 to 73 °C for the second.

Compared with CC1OC(O)(Cl)CC(NC(=O)C(F)(F)F)C1(O)OC(=O)C(F)(F)F (stereo not drawn), CCCC(=O)Nc1n[nH]c2c(F)c(C(F)(F)F)ccc12 is higher in melting point: 132 to 134 °C for the first, 220 to 222 °C for the second.

First: CCN1CC(=O)N(c2c(C)cccc2Cl)C1=S
Second: CCOC(=O)c1cc2c(Cl)cc(Cl)cc2[nH]1
The melting point of the first is lower: 124 to 126 °C for the first, 180 °C for the second.

First: O=C1CCC(c2ccc(-c3ccccc3F)cc2)O1 (stereo not drawn)
Second: O=C(O)c1ncn2c1[C@@H]1CCN1C(=O)c1ccccc1-2
The melting point of the first is lower: 74 to 75 °C for the first, 232 °C for the second.

First: Cc1cc(CC(=O)O)cc(Cc2nc3c(F)c(F)cc(F)c3s2)c1
Second: NC(=O)CCc1conc1-c1ccc(Cl)cc1
The melting point of the first is lower: 127 to 129 °C for the first, 158 to 159 °C for the second.

Compared with COc1cc(Nc2c(C#N)cnc3cc(-c4cc(CN5CCOCC5)c(CN5CCOCC5)s4)c(OC)cc23)c(Cl)cc1Cl, COc1cc2c(cc1OCc1ccccc1)CCN(Cc1cccc(O[Si](C(C)C)(C(C)C)C(C)C)c1)C2 is lower in melting point: 120 to 124 °C for the first, 78 to 79 °C for the second.

First: O=[N+]([O-])c1cn2c(n1)O[C@@H](COc1ccc(N3CCC(OCc4ccc(OC(F)(F)F)cc4)CC3)cc1)C2
Second: COCOC1=C(C(N)=O)CC(C#N)(c2ccc(OC)c(OCC3CC3)c2)CC1 (stereo not drawn)
The melting point of the first is higher: 188 to 189 °C for the first, 120 to 122 °C for the second.

First: O=C1C(C(c2ccccc2)c2ccccc2)NC2CCCC3C(C2)C13 (stereo not drawn)
Second: O=CC1(Br)C2CCC(CC2)C1c1ccccc1 (stereo not drawn)
The melting point of the first is higher: 178 to 181 °C for the first, 65 to 66 °C for the second.

Compared with CC(=O)Nc1nc2cc(-c3ccc(C=C4SC(=O)NC4=O)cn3)cc(C34CC5CC(CC(C5)C3)C4)c2o1, O=C(O)CCNC1CCCN(c2ccc3c(C(=O)NCC45CC6CC(CC(C6)C4)C5)c(Cl)ccc3n2)C1 (stereo not drawn) is lower in melting point: > 360 °C for the first, 176 to 189 °C for the second.

First: CCCCOC(=O)C1CC(n2cnc3c(Cl)ncnc32)C(O)C1O (stereo not drawn)
Second: C=CCN(CC=C)c1nc(NC(=O)c2ccc(Cl)cc2)n2oc(=O)nc2n1
The melting point of the first is lower: 104 to 106 °C for the first, 192 to 194 °C for the second.

First: O=C(Nc1ccc(C(=O)N2CCC(O)c3ccccc32)cc1)c1cc(Cl)cc(Cl)c1 (stereo not drawn)
Second: O=c1[nH]c2ccsc2[nH]c1=O
The melting point of the first is lower: 215 to 217 °C for the first, > 340 °C for the second.

For Cc1cc(NC2=NCCN2)n(C)n1, the melting point was 167 to 169 °C.
